Assay results published in patent US20260317312A1, “ISOXAZOLIDINES AS RIPK1 INHIBITORS AND USE THEREOF” (GENZYME CORPORATION, priority 2023, published 2026).

Key:
[1] = tested on: U937 cells; experiment: Cellular assay in U937 cells to measure activity of RIPK1-inhibitors on cell death (necroptosis); format: cell-based; conditions: overnight (18 to 24 hrs), 37° C., MTS readout
[2] = target: T1, hRIPK1 (aa 1-375) fusion protein (Homo sapiens, UniProt Q13546); experiment: Receptor-Interacting Protein Kinase 1 inhibition, ADP Glo assay (conversion of ATP to ADP due to autophosphorylation); format: biochemical; conditions: ATP 50 μM, 30 min preincubation, 240 min incubation, room temperature, DMSO 1%
T1 construct: hRIPK1 (aa 1-375) fusion protein
T1 sequence (Q13546 1-375): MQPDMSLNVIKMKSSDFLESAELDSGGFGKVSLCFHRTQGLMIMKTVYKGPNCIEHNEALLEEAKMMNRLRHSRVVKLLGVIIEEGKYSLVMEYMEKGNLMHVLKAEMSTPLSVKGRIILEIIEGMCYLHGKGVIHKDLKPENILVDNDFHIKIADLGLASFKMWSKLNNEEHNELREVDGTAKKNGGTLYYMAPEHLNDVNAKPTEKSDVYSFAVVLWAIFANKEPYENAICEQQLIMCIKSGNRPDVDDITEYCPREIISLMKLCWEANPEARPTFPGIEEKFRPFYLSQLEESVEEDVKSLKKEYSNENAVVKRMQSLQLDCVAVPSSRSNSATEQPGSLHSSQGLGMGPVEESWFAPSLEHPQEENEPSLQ
Procedure, shortened: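 hRIPK1 (aa 1-375) fusion protein (3.6 μg/ml final) was preincubated 30 min at rt with compound (33300-1.69 nM, 1% DMSO), then 50 μM ATP was added for 240 min at rt. ADP from autophosphorylation was measured by ADP-Glo luminescence and curves fitted by nonlinear regression.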

[3] = Homo sapiens, U-937, TNFα/zVAD.fmk induced cell death (necroptosis)
[4] = TNFα/zVAD.fmk induced cell death (necroptosis)

SMILES | IC50 [2] [nM] | IC50 [1, 3] [nM] | IC50 [1, 4] [nM]
O=C([C@H]1C[C@@H](n2cnc3cc(F)ccc32)C1)N1OCC[C@H]1c1cc(F)cc(F)c1 [Compound 69, cis-((S)-3-(3,5-difluorophenyl)isoxazolidin-2-yl)(3-(5-fluoro-1H-benzo[d]imidazol-1-yl)cyclobutyl)methanone] | 26 | 35 | –
O=C([C@H]1C[C@H](n2ccc3cc(F)ccc32)C1)N1OCC[C@H]1c1cc(F)cc(F)c1 [Compound 106, trans-[(3S)-3-(3,5-difluorophenyl)isoxazolidin-2-yl]-[3-(5-fluoroindol-1-yl)cyclobutyl]methanone] | 77 | 353 | –
O=C([C@H]1C[C@@H](n2cnc3ccccc32)C1)N1OCC[C@H]1c1cncc(F)c1 [Compound 42, cis-(3-(1H-benzo[d]imidazol-1-yl)cyclobutyl)((S)-3-(5-fluoropyridin-3-yl)isoxazolidin-2-yl)methanone] | 156 | 921 | –
N#Cc1cc(F)cc([C@@H]2CCON2C(=O)[C@H]2C[C@H](n3ncc4cc(F)ccc43)C2)c1 [Compound 98, trans-3-fluoro-5-[(3S)-2-[3-(5-fluoroindazol-1-yl)cyclobutanecarbonyl]isoxazolidin-3-yl]benzonitrile] | 41 | 359 | –
N#Cc1cc(NC[C@H]2CC[C@H](C(=O)N3OCC[C@H]3c3cncc(F)c3)CC2)ccc1F [Compound 34, trans-2-fluoro-5-(((4-((S)-3-(5-fluoropyridin-3-yl)isoxazolidine-2-carbonyl)cyclohexyl)methyl)amino)benzonitrile] | 20 | 11 | –
NC(=O)c1ccnc(N[C@H]2CC[C@@H](C(=O)N3OCC[C@H]3c3ccc(Cl)cc3)CC2)n1 [Compound 12, cis-2-((4-((S)-3-(4-chlorophenyl)isoxazolidine-2-carbonyl)cyclohexyl)amino)pyrimidine-4-carboxamide] | 35 | 560 | –
N#Cc1cc(F)cc([C@@H]2CCON2C(=O)[C@H]2C[C@@H](n3ccc4cc(F)ccc43)C2)c1 [Compound 107, cis-3-fluoro-5-[(3S)-2-[3-(5-fluoroindol-1-yl)cyclobutanecarbonyl]isoxazolidin-3-yl]benzonitrile] | 19 | 214 | –
N#Cc1cc(F)cc([C@@H]2CCON2C(=O)[C@H]2C[C@@H](Nc3nccc(C#N)n3)C2)c1 [Compound 19, cis-2-((3-((S)-3-(3-cyano-5-fluorophenyl)isoxazolidine-2-carbonyl)cyclobutyl)amino)pyrimidine-4-carbonitrile] | 66 | 757 | –
O=C([C@H]1C[C@@H](n2ncc3cc(F)ccc32)C1)N1OCC[C@H]1c1cc(F)cc(F)c1 [Compound 96, cis-[(3S)-3-(3,5-difluorophenyl)isoxazolidin-2-yl]-[3-(5-fluoroindazol-1-yl)cyclobutyl]methanone] | 47 | 906 | –
N#Cc1ccnc(N[C@H]2C[C@@H](C(=O)N3OCC[C@H]3c3ccc(Cl)cc3)C2)n1 [Compound 24, cis-2-((3-((S)-3-(4-chlorophenyl)isoxazolidine-2-carbonyl)cyclobutyl)amino)pyrimidine-4-carbonitrile] | 13 | – | 264
N#Cc1ccnc(NC[C@H]2CC[C@H](C(=O)N3OCC[C@H]3c3ccc(Cl)cc3)CC2)n1 [Compound 14, trans-2-(((4-((S)-3-(4-chlorophenyl)isoxazolidine-2-carbonyl)cyclohexyl)methyl)amino)pyrimidine-4-carbonitrile] | 33 | 503 | –
Cc1cc(C)n(-c2ccc(OC[C@H]3CC[C@H](C(=O)N4OCC[C@H]4c4cncc(C#N)c4)CC3)c(F)c2)n1 [Compound 90, trans-5-((S)-2-(4-((4-(3,5-dimethyl-1H-pyrazol-1-yl)-2-fluorophenoxy)methyl)cyclohexane-1-carbonyl)isoxazolidin-3-yl)nicotinonitrile] | 21 | 23 | –
N#Cc1cc(N[C@H]2C[C@@H](C(=O)N3OCC[C@H]3c3ccc(F)c(F)c3)C2)ncn1 [Compound 22, cis-6-((3-((S)-3-(3,4-difluorophenyl)isoxazolidine-2-carbonyl)cyclobutyl)amino)pyrimidine-4-carbonitrile] | 40 | 313 | –
O=C([C@H]1C[C@H](n2ncc3cc(F)ccc32)C1)N1OCC[C@H]1c1cc(F)cc(F)c1 [Compound 97, trans-[(3S)-3-(3,5-difluorophenyl)isoxazolidin-2-yl]-[3-(5-fluoroindazol-1-yl)cyclobutyl]methanone] | 38 | 151 | –

Continued, in another order:

IC50 [2] [nM] | SMILES | IC50 [1, 3] [nM] | IC50 [1, 4] [nM]
44 | CN1CC(=O)N(c2ccc(Cl)c(OC[C@H]3CC[C@H](C(=O)N4OCC[C@H]4c4cc(F)cc(F)c4)CC3)c2)C1=O [Compound 63, trans-3-(4-chloro-3-((4-((S)-3-(3,5-difluorophenyl)isoxazolidine-2-carbonyl)cyclohexyl)methoxy)phenyl)-1-methylimidazolidine-2,4-dione] | 45 | –
76 | O=C1CCCN1c1ccc(Cl)c(OC[C@H]2CC[C@H](C(=O)N3OCC[C@H]3c3cc(F)cc(F)c3)CC2)c1 [Compound 60, trans-1-(4-chloro-3-((4-((S)-3-(3,5-difluorophenyl)isoxazolidine-2-carbonyl)cyclohexyl)methoxy)phenyl)pyrrolidin-2-one] | 112 | –
23 | N#Cc1cc(F)cc([C@@H]2CCON2C(=O)C2CCC(COc3cc(C(N)=O)ncn3)C2)c1 (single isomer, unassigned; stereoisomer 2) [Compound 116] | – | 377
17 | NC(=O)c1cc(OCC2CCCC(C(=O)N3OCC[C@H]3c3cc(F)cc(F)c3)CC2)ncn1 (single isomer, unassigned; stereoisomer 1) [Compound 122] | – | 30
90 | NC(=O)c1ccnc(N[C@H]2C[C@H](C(=O)N3OCC[C@H]3c3cc(F)cc(F)c3)C2)n1 [Compound 4, trans-2-((3-((S)-3-(3,5-difluorophenyl)isoxazolidine-2-carbonyl)cyclobutyl)amino)pyrimidine-4-carboxamide] | 360 | –
56 | Cc1nnc(C)n1-c1ccc(F)c(OC[C@H]2CC[C@H](C(=O)N3OCC[C@H]3c3cc(F)cc(F)c3)CC2)c1 [Compound 64, trans-((S)-3-(3,5-difluorophenyl)isoxazolidin-2-yl)(4-((5-(3,5-dimethyl-4H-1,2,4-triazol-4-yl)-2-fluorophenoxy)methyl)cyclohexyl)methanone] | 529 | –
18 | N#Cc1cc(OC[C@H]2CC[C@@H](C(=O)N3OCC[C@H]3c3cc(F)cc(F)c3)CC2)ccc1F [Compound 52, cis-5-((4-((S)-3-(3,5-difluorophenyl)isoxazolidine-2-carbonyl)cyclohexyl)methoxy)-2-fluorobenzonitrile] | 6 | –
40 | NC(=O)c1cc(OC[C@H]2CC[C@H](C(=O)N3OCC[C@H]3c3cnccn3)CC2)ccc1F [Compound 101, trans-2-fluoro-5-[[4-[(3S)-3-pyrazin-2-ylisoxazolidine-2-carbonyl]cyclohexyl]methoxy]benzamide] | 140 | –
35 | NS(=O)(=O)c1cccc(OC[C@H]2CC[C@H](C(=O)N3OCC[C@H]3c3cc(F)cc(F)c3)CC2)c1 [Compound 66, trans-3-((4-((S)-3-(3,5-difluorophenyl)isoxazolidine-2-carbonyl)cyclohexyl)methoxy)benzenesulfonamide] | 8 | –
50 | N#Cc1cc(F)cc([C@@H]2CCON2C(=O)C2CCC(COc3cc(C(N)=O)ncn3)C2)c1 (single isomer, unassigned; stereoisomer 3) [Compound 117] | – | 675
18 | N#Cc1cc(F)cc([C@@H]2CCON2C(=O)[C@H]2CC[C@H](CNc3ccc(F)c(C#N)c3)CC2)c1 [Compound 35, trans-5-(((4-((S)-3-(3-cyano-5-fluorophenyl)isoxazolidine-2-carbonyl)cyclohexyl)methyl)amino)-2-fluorobenzonitrile] | – | 4
41 | NC(=O)c1cc(F)cc(OC[C@H]2CC[C@H](C(=O)N3OCC[C@H]3c3cnccn3)CC2)c1 [Compound 112, trans-3-fluoro-5-[[4-[(3S)-3-pyrazin-2-ylisoxazolidine-2-carbonyl]cyclohexyl]methoxy]benzamide] | 47 | –
46 | Cc1nnc(C)n1-c1ccc(OC[C@H]2CC[C@H](C(=O)N3OCC[C@H]3c3cc(F)cc(F)c3)CC2)c(F)c1 [Compound 67, trans-((S)-3-(3,5-difluorophenyl)isoxazolidin-2-yl)(4-((4-(3,5-dimethyl-4H-1,2,4-triazol-4-yl)-2-fluorophenoxy)methyl)cyclohexyl)methanone] | 128 | –
11 | N#Cc1cc(OC[C@H]2CC[C@H](C(=O)N3OCC[C@H]3c3cc(F)cc(F)c3)CC2)ccc1F [Compound 43, trans-5-((4-((S)-3-(3,5-difluorophenyl)isoxazolidine-2-carbonyl)cyclohexyl)methoxy)-2-fluorobenzonitrile] | 2 | –
